# Measurements taken from patent US11116760B2 (Gilead Sciences, Inc., priority 2018, dated 2021).
# Target: α4β7 integrin (Homo sapiens (Human), UniProt P13612+P26010)
# Experiment: α4β7 Integrin Cell Capture Assay
# Type: cell-based
# Experimental: α4β7 Integrin Cell Capture Assay
# The potency of inhibitors in preventing α4β7 integrin interaction with MadCAM-1 was measured by monitoring the capture of α4β7 integrin expressing cells on a recombinant MadCAM-1 extracellular domain-coated plate. […] The plates were then washed with PBS and blocked with 3% BSA for 2 hours before being washed again.
# RPM18866 cells were spun down and re-suspended in assay medium (DMEM+0.5% FBS+0.5 mM MnCl2) at a density of 0.5×10^6 cells/mL. […] The plates were incubated at 37° C. for 1 hour. 50 μL of cells were transferred to the blocked, MadCAM-1-coated plates and incubated for 30 minutes at 37° C. […] The plates were incubated for 90 minutes at room temperature. The plates were then washed 3 times with 70 μL of PBS per well and imaged on a Cellomics ArrayScan instrument. The cells that were bound to the plate were counted and plotted against the compound concentration to determine the EC50 of the test compounds.
# [1] = Table 2, capture of α4β7 expressing RPM18866 cells on MadCAM-1 extracellular domain-coated plate
# [2] = Table 1, capture of α4β7 expressing RPM18866 cells on MadCAM-1 extracellular domain-coated plate
# [3] = RPMI8866 cells captured on MadCAM-1 extracellular domain-coated plate
# Chain of α4β7 integrin (P13612 34-1032): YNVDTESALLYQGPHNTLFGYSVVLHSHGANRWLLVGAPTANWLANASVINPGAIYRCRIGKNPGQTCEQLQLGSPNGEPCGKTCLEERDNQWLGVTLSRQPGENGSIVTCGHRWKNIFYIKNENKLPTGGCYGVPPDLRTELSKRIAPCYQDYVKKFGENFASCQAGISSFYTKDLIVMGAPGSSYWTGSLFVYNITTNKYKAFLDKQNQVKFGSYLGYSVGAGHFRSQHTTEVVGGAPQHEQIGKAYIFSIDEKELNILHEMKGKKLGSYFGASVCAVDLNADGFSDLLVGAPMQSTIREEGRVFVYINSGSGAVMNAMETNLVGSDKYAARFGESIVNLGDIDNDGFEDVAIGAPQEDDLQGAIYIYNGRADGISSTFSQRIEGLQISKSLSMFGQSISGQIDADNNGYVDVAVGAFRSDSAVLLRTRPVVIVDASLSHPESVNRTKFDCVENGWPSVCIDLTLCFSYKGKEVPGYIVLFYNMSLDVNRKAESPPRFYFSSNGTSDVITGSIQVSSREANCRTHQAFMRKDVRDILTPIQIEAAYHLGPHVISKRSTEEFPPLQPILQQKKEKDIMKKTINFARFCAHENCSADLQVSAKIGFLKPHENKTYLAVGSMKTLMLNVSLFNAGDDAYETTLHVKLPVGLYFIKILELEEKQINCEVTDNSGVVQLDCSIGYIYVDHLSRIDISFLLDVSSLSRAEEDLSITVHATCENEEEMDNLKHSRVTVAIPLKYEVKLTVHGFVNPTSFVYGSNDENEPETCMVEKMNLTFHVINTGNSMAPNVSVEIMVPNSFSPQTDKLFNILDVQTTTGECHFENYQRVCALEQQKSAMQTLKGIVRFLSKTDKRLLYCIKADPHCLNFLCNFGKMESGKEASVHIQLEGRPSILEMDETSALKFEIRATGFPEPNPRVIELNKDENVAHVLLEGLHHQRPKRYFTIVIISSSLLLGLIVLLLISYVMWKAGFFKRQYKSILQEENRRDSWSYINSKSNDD
# Chain of α4β7 integrin (P26010 20-798): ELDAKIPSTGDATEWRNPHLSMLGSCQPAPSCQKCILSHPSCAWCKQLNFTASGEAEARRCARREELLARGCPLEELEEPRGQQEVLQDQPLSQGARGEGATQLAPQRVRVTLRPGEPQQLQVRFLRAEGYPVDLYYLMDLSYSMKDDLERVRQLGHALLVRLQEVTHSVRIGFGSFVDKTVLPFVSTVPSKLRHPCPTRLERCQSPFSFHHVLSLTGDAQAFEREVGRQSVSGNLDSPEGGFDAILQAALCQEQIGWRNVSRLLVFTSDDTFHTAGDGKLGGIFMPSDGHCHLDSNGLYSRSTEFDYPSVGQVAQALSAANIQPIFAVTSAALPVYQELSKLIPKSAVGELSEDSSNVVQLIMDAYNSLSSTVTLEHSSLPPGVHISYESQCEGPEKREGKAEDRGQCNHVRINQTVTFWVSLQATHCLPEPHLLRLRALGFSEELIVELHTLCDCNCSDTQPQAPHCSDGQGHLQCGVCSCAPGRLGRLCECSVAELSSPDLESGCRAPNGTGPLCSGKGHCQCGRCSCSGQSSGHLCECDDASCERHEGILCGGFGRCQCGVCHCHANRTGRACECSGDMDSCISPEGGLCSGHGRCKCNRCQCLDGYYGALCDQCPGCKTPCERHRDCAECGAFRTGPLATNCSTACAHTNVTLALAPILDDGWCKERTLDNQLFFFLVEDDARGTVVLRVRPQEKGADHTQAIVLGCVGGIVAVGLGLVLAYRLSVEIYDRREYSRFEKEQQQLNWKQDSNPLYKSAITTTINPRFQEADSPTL
EC50 [1] [nM],EC50 [2] [nM],SMILES,other results
4.1,–,CC[C@@H](Nc1cc(F)c(C(=O)N[C@@H](Cc2ccc(-c3ccc(F)c4cccnc34)c3ncccc23)C(=O)O)c(F)c1)C(F)(F)F [Example 264],–
–,25.1,"COc1cc2ccccc2cc1-c1ccc(C[C@H](NC(=O)c2c(F)cccc2F)C(=O)O)c2cccnc12 [Example 9, (S)-2-(2,6-difluorobenzamido)-3-(8-(3-methoxynaphthalen-2-yl)quinolin-5-yl)propanoic acid]",–
2.6,–,CC[C@@H](Nc1cc(F)c(C(=O)N[C@@H](Cc2ccc(-c3nc(C)c(C)c(C)c3C(F)(F)F)c3ncccc23)C(=O)O)c(F)c1)C(F)(F)F [Example 236],–
–,0.4,"CC[C@@H](N(C)c1cc(F)c(C(=O)N[C@@H](Cc2ccc(-c3c(C(F)(F)F)cc(C)n(C)c3=O)c3ncccc23)C(=O)O)c(F)c1)C(F)(F)F [Example 135, (S)-2-(2,6-difluoro-4-(methyl((R)-1,1,1-trifluorobutan-2-yl)amino)benzamido)-3-(8-(1,6-dimethyl-2-oxo-4-(trifluoromethyl)-1,2-dihydropyridin-3-yl)quinolin-5-yl)propanoic acid]",–
–,–,Cc1cc(N2CCOC[C@@H]2C(F)(F)F)cc(F)c1C(=O)N[C@@H](Cc1ccc(-c2cc3cnccc3n(C)c2=O)c2ncccc12)C(=O)O [Example 469],EC50 [3]: 0.103 nM
0.7,–,Cc1cc(C(F)(F)F)c(-c2ccc(C[C@H](NC(=O)c3c(F)cc(N4CCO[C@@H](C)C4)cc3F)C(=O)O)c3cccnc23)c(=O)n1C [Example 181],–
13.6,–,CC[C@@H](Nc1cc(F)c(C(=O)N[C@@H](Cc2ccc(-c3ncccc3N(C)C)c3ncccc23)C(=O)O)c(F)c1)C(F)(F)F [Example 315],–
–,–,CN(C)c1ccc2c(c1)c(=O)n(-c1ccc(C[C@H](NC(=O)c3c(F)cc(N4CCOC[C@@H]4C(F)(F)F)cc3F)C(=O)O)c3cccnc13)c(=O)n2C [Example 478],EC50 [3]: 0.394 nM
–,4.1,"CN(C)c1ccnc(-c2ccc(C[C@H](NC(=O)c3c(F)cc(N4CCOC[C@@H]4C(F)(F)F)cc3F)C(=O)O)c3cccnc23)c1C(F)(F)F [Example 105, (S)-2-(2,6-difluoro-4-((R)-3-(trifluoromethyl)morpholino)benzamido)-3-(8-(4-(dimethylamino)-3-(trifluoromethyl)pyridin-2-yl)quinolin-5-yl)propanoic acid]",–
60.5,–,N#Cc1ccc(-c2ccc(C[C@H](NC(=O)c3c(F)cc(NC4(C(F)(F)F)CC4)cc3F)C(=O)O)c3cccnc23)c(Cl)c1 [Example 229],–
3.7,–,Cc1c(N(C)C)cc(-c2ccc(C[C@H](NC(=O)c3c(F)cc(N4CCOC[C@@H]4C(F)(F)F)cc3F)C(=O)O)c3cccnc23)c(=O)n1C [Example 259],–
–,20.5,"CC[C@@H](Nc1cc(F)c(C(=O)N[C@@H](Cc2ccc(-c3nn(C)c(=O)cc3C)c3ncccc23)C(=O)O)c(F)c1)C(F)(F)F [Example 119, (S)-2-(2,6-difluoro-4-(((R)-1,1,1-trifluorobutan-2-yl)amino)benzamido)-3-(8-(1,4-dimethyl-6-oxo-1,6-dihydropyridazin-3-yl)quinolin-5-yl)propanoic acid]",–
–,–,Cc1cc(C(F)(F)F)c(-c2ccc(C[C@H](NC(=O)c3c(F)cc(N4CCO[C@@H](C)[C@@H]4C(F)(F)F)cc3F)C(=O)O)c3cccnc23)c(=O)n1C [Example 468],EC50 [3]: 0.189 nM
–,9.5,"O=C(N[C@@H](Cc1ccc(-c2ncc3ccccc3c2C(F)(F)F)c2ncccc12)C(=O)O)c1c(F)cccc1F [Example 71, (S)-2-(2,6-difluorobenzamido)-3-(8-(4-(trifluoromethyl)isoquinolin-3-yl)quinolin-5-yl)propanoic acid]",–
–,–,Cc1cc(C(F)(F)F)c(-c2ccc(C[C@H](NC(=O)c3c(F)cc(N4CCO[C@@H](C(F)(F)F)C4)cc3F)C(=O)O)c3cccnc23)c(=O)n1C [Example 447],EC50 [3]: 0.271 nM
–,–,"Cc1cc(C(F)(F)F)c(-c2ccc(C[C@H](NC(=O)c3c(F)cc(N4CCN(C)C[C@@H]4C(F)(F)F)cc3F)C(=O)O)c3cccnc23)c(=O)n1C (atropisomer, axis not shown) [Example 486]",EC50 [3]: 1.31 nM
–,0.6,"CC[C@@H](Nc1cc(F)c(C(=O)N[C@@H](Cc2ccc(-c3c(C)c(C)c(C)n(C)c3=O)c3ncccc23)C(=O)O)c(F)c1)C(F)(F)F [Example 115, (S)-2-(2,6-difluoro-4-(((R)-1,1,1-trifluorobutan-2-yl)amino)benzamido)-3-(8-(1,4,5,6-tetramethyl-2-oxo-1,2-dihydropyridin-3-yl)quinolin-5-yl)propanoic acid]",–
2.1,–,Cc1cc(C(F)(F)F)c(-c2ccc(C[C@H](NC(=O)c3c(F)cccc3F)C(=O)O)c3cccnc23)c(=O)n1C [Example 218],–
11.9,–,O=C(N[C@@H](Cc1ccc(-c2c(C(F)(F)F)cc3n(c2=O)CCC3)c2ncccc12)C(=O)O)c1c(Cl)cccc1Cl [Example 308],–
–,0.2,"CC[C@@H](Nc1cc(F)c(C(=O)N[C@@H](Cc2ccc(-c3c(OC)c4ccccc4n(C)c3=O)c3ncccc23)C(=O)O)c(F)c1)C(F)(F)F [Example 122, (S)-2-(2,6-difluoro-4-(((R)-1,1,1-trifluorobutan-2-yl)amino)benzamido)-3-(4-methoxy-1-methyl-2-oxo-1,2-dihydro-[3,8′-biquinolin]-5′-yl)propanoic acid]",–
–,28.9,"COc1ccc(C(F)(F)F)c(-c2ccc(C[C@H](NC(=O)c3c(Cl)cccc3Cl)C(=O)O)c3cccnc23)n1 [Example 69, (S)-2-(2,6-dichlorobenzamido)-3-(8-(6-methoxy-3-(trifluoromethyl)pyridin-2-yl)quinolin-5-yl)propanoic acid]",–
–,–,"Cc1cc(N2CCOC[C@@H]2C(F)(F)F)cc(F)c1C(=O)N[C@@H](Cc1ccc(-n2c(=O)c3ccncc3n(C)c2=O)c2ncccc12)C(=O)O (atropisomer, axis not shown) [Example 408, (S)-2-(2-fluoro-6-methyl-4-((R)-3-(trifluoromethyl)morpholino)benzamido)-3-(8-(1-methyl-2,4-dioxo-1,4-dihydropyrido[3,4-d]pyrimidin-3(2H)-yl)quinolin-5-yl)propanoic acid]",EC50 [3]: 0.049 nM
–,4.6,"CCOCc1cc(OC)c(-c2ccc(C[C@H](NC(=O)c3c(F)cc(C(N)=O)cc3F)C(=O)O)c3cccnc23)c(OC)c1 [Example 43, (S)-2-(4-carbamoyl-2,6-difluorobenzamido)-3-(8-(4-(ethoxymethyl)-2,6-dimethoxyphenyl)quinolin-5-yl)propanoic acid]",–
–,–,Cc1cc(N2CCOC[C@@H]2C(F)(F)F)cc(F)c1C(=O)N[C@@H](Cc1ccc(-c2nc(C)c(C)n(C)c2=O)c2ncc(F)cc12)C(=O)O [Example 452],EC50 [3]: 0.232 nM

SMILES,EC50 [1] [nM],EC50 [2] [nM],other results
"CC[C@@H](Nc1cc(F)c(C(=O)N[C@@H](Cc2ccc(-c3c(C(F)(F)F)cc(C)n(C)c3=O)c3ncc(N(C)C)cc23)C(=O)O)c(F)c1)C(F)(F)F [Example 139, (S)-2-(2,6-difluoro-4-(((R)-1,1,1-trifluorobutan-2-yl)amino)benzamido)-3-(8-(1,6-dimethyl-2-oxo-4-(trifluoromethyl)-1,2-dihydropyridin-3-yl)-3-(dimethylamino)quinolin-5-yl)propanoic acid]",–,11.7,–
"N#Cc1ccc(-c2ccc(C[C@H](NC(=O)c3c(F)cc(C(=O)O)cc3F)C(=O)O)c3cccnc23)c(Cl)c1 [Example 25, (S)-4-((1-carboxy-2-(8-(2-chloro-4-cyanophenyl)quinolin-5-yl)ethyl)carbamoyl)-3,5-difluorobenzoic acid]",–,3.3,–
